Laboratory results as given in paper PMC7377239, “Cardiovascular Effects of Polychlorinated Biphenyls and Their Major Metabolites” (Environmental Health Perspectives, 2020).
Counter-ions that a name gives are not always drawn. Like-named read-outs stand apart in the source and are kept apart here.

Key:
[1] = system: iPSC-CMs, iPSC-ECs and HUVECs phenotypes; experiment: ToxPi 2.0 integration of POD values and physicochemical descriptors; parameters: species or system human; conditions: ToxPi-scaled (0-1) score; for huvec.cyto.24hr / huvec.mito.24hr / huvec.mitoint.24hr / huvec.nma.24hr / huvec.tc.24hr / huvec.mtl.18hr / huvec.tlps.18hr / huvec.tta.18hr / huvec.ttl.18hr: HUVECs; for huvec.mtl.18hr / huvec.tlps.18hr / huvec.tta.18hr / huvec.ttl.18hr / endo.mtl.18hr / endo.tlps.18hr / endo.tta.18hr / endo.ttl.18hr: tube formation; for cm.amp.avg.90min / cm.amp.cv.90min / cm.bpm.90min / cm.cam.90min / cm.decay.rise.90min / cm.mii.90min / cm.mito.90min / cm.spacing.cv.90min / cm.tc.90min / cm.amp.avg.24hrs / cm.amp.cv.24hrs / cm.bpm.24hrs / cm.cam.24hrs / cm.decay.rise.24hrs / cm.mii.24hrs / cm.mito.24hrs / cm.spacing.cv.24hrs / cm.tc.24hrs: iPSC cardiomyocytes; for endo.cyto.24hr / endo.mito.24hr / endo.mitoint.24hr / endo.nma.24hr / endo.tc.24hr / endo.mtl.18hr / endo.tlps.18hr / endo.tta.18hr / endo.ttl.18hr: iPSC endothelial cells
Method in brief: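 Phenotypic readouts in iPSC-cardiomyocytes, iPSC-endothelial cells and HUVECs were normalised to 0.5% DMSO vehicle and fitted to a four-parameter logistic model. POD set at one SD cutoff of vehicle means, with 100 μM assigned when no response. PODs and physicochemical descriptors combined in ToxPi 2.0 scores.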

[2] = system: iCell cardiomyocytes (human iPSC-derived cardiomyocytes); experiment: High-content imaging of cytotoxicity and mitochondrial integrity in iPSC-CMs; type: cell-based; conditions: for minimal effective concentration: Homo sapiens, Cardiomyocyte, cardiomyocytes (cm)
Method in brief: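 Cardiomyocytes grown on gelatinized 384-well plates received fresh medium on the experiment day and were then exposed to chemicals at 0.01–100μM. Nuclei and mitochondria were labeled with Hoechst 33342 and MitoTracker™ Orange, then fixed, and imaged on an ImageXpress® Micro Confocal system. Four-parameter logistic concentration–response fits in R, with a one-standard-deviation vehicle cutoff, gave point-of-departure values.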

[3] = 1.5 h, cam, 90 min, read-out: POD cm.cam.90min
[4] = 1.5 h, mii, 90 min, read-out: POD cm.mii.90min
[5] = 1.5 h, mito, 90 min, read-out: POD cm.mito.90min
[6] = 1.5 h, tc, 90 min, read-out: POD cm.tc.90min
[7] = 24 h, cam, 24 hrs, read-out: POD cm.cam.24hrs
[8] = 24 h, mii, 24 hrs, read-out: POD cm.mii.24hrs
[9] = 24 h, mito, 24 hrs, read-out: POD cm.mito.24hrs
[10] = 24 h, tc, 24 hrs, read-out: POD cm.tc.24hrs

COc1ccc(-c2ccc(Cl)cc2)cc1 [4'-OMe-PCB 3, 4′-methoxy-4-chlorobiphenyl]
huvec.cyto.24hr [1]: 0.2539 | huvec.mito.24hr [1]: 0.3347 | huvec.mitoint.24hr [1]: 0.2259 | huvec.nma.24hr [1]: 0.5435 | huvec.tc.24hr [1]: 0.2539 | huvec.mtl.18hr [1]: 0.5905 | huvec.tlps.18hr [1]: 0.1332 | huvec.tta.18hr [1]: 0.4823 | huvec.ttl.18hr [1]: 0.3839 | cm.amp.avg.90min [1]: 0.148 | cm.amp.cv.90min [1]: 0.2333 | cm.bpm.90min [1]: 0.4231 | cm.cam.90min [1]: 0 | cm.decay.rise.90min [1]: 0 | cm.mii.90min [1]: 0 | cm.mito.90min [1]: 0 | cm.spacing.cv.90min [1]: 0.06946 | cm.tc.90min [1]: 0 | cm.amp.avg.24hrs [1]: 0.1468 | cm.amp.cv.24hrs [1]: 0 | cm.bpm.24hrs [1]: 0.4274 | cm.cam.24hrs [1]: 0.02517 | cm.decay.rise.24hrs [1]: 0.569 | cm.mii.24hrs [1]: 0 | cm.mito.24hrs [1]: 0 | cm.spacing.cv.24hrs [1]: 0.5026 | cm.tc.24hrs [1]: 0 | endo.cyto.24hr [1]: 0 | endo.mito.24hr [1]: 0 | endo.mitoint.24hr [1]: 0.218 | endo.nma.24hr [1]: 0 | endo.tc.24hr [1]: 0 | endo.mtl.18hr [1]: 0.3533 | endo.tlps.18hr [1]: 0.3362 | endo.tta.18hr [1]: 0.2327 | endo.ttl.18hr [1]: 0.2433 | minimal effective concentration [2, 3]: 100 µM | minimal effective concentration [2, 4]: 100 µM | minimal effective concentration [2, 5]: 100 µM | minimal effective concentration [2, 6]: 100 µM | minimal effective concentration [2, 7]: 82.9 µM | minimal effective concentration [2, 8]: 100 µM | minimal effective concentration [2, 9]: 100 µM | minimal effective concentration [2, 10]: 100 µM | effect on cell viability in iPSC-CMs ([2]; iPSC-CMs, 0.01-100 μM, 90 min and 24 h): little effect on cell viability

O=S(=O)(O)Oc1ccc(-c2ccc(Cl)cc2)cc1 [4'-PCB 3 sulfate]
huvec.cyto.24hr [1]: 0 | huvec.mito.24hr [1]: 0 | huvec.mitoint.24hr [1]: 0 | huvec.nma.24hr [1]: 0 | huvec.tc.24hr [1]: 0 | huvec.mtl.18hr [1]: 0.4903 | huvec.tlps.18hr [1]: 0 | huvec.tta.18hr [1]: 0.272 | huvec.ttl.18hr [1]: 0 | cm.amp.avg.90min [1]: 0.6628 | cm.amp.cv.90min [1]: 0.2569 | cm.bpm.90min [1]: 0.1909 | cm.cam.90min [1]: 0 | cm.decay.rise.90min [1]: 0.4625 | cm.mii.90min [1]: 0 | cm.mito.90min [1]: 0 | cm.spacing.cv.90min [1]: 0.1039 | cm.tc.90min [1]: 0 | cm.amp.avg.24hrs [1]: 0 | cm.amp.cv.24hrs [1]: 0 | cm.bpm.24hrs [1]: 0 | cm.cam.24hrs [1]: 0 | cm.decay.rise.24hrs [1]: 0 | cm.mii.24hrs [1]: 0.1652 | cm.mito.24hrs [1]: 0 | cm.spacing.cv.24hrs [1]: 0 | cm.tc.24hrs [1]: 0 | endo.cyto.24hr [1]: 0 | endo.mito.24hr [1]: 0 | endo.mitoint.24hr [1]: 0 | endo.nma.24hr [1]: 0 | endo.tc.24hr [1]: 0 | endo.mtl.18hr [1]: 0.3281 | endo.tlps.18hr [1]: 0.3444 | endo.tta.18hr [1]: 0.1625 | endo.ttl.18hr [1]: 0.2037 | minimal effective concentration [2, 3]: 100 µM | minimal effective concentration [2, 4]: 100 µM | minimal effective concentration [2, 5]: 100 µM | minimal effective concentration [2, 6]: 100 µM | minimal effective concentration [2, 7]: 100 µM | minimal effective concentration [2, 8]: 53.5 µM | minimal effective concentration [2, 9]: 100 µM | minimal effective concentration [2, 10]: 100 µM

Oc1cc(Cl)cc(-c2cccc(Cl)c2)c1 [5-OH-PCB 11]
huvec.cyto.24hr [1]: 0.4815 | huvec.mito.24hr [1]: 0.5672 | huvec.mitoint.24hr [1]: 0.6755 | huvec.nma.24hr [1]: 0.5619 | huvec.tc.24hr [1]: 0.4815 | huvec.mtl.18hr [1]: 0.5955 | huvec.tlps.18hr [1]: 0 | huvec.tta.18hr [1]: 0 | huvec.ttl.18hr [1]: 0.1684 | cm.amp.avg.90min [1]: 0.6478 | cm.amp.cv.90min [1]: 0.2678 | cm.bpm.90min [1]: 0.7407 | cm.cam.90min [1]: 0.7498 | cm.decay.rise.90min [1]: 0.5778 | cm.mii.90min [1]: 0.4013 | cm.mito.90min [1]: 0.8059 | cm.spacing.cv.90min [1]: 0.07982 | cm.tc.90min [1]: 0.8069 | cm.amp.avg.24hrs [1]: 0.069 | cm.amp.cv.24hrs [1]: 0.2233 | cm.bpm.24hrs [1]: 0.1451 | cm.cam.24hrs [1]: 0.2664 | cm.decay.rise.24hrs [1]: 0.2666 | cm.mii.24hrs [1]: 0.6539 | cm.mito.24hrs [1]: 0.4142 | cm.spacing.cv.24hrs [1]: 0.2695 | cm.tc.24hrs [1]: 0.5144 | endo.cyto.24hr [1]: 0.1503 | endo.mito.24hr [1]: 0.1503 | endo.mitoint.24hr [1]: 0.08226 | endo.nma.24hr [1]: 0.3443 | endo.tc.24hr [1]: 0.1482 | endo.mtl.18hr [1]: 0.3075 | endo.tlps.18hr [1]: 0.4586 | endo.tta.18hr [1]: 0.2424 | endo.ttl.18hr [1]: 0.241 | minimal effective concentration [2, 3]: 16.2 µM | minimal effective concentration [2, 4]: 34.1 µM | minimal effective concentration [2, 5]: 13.8 µM | minimal effective concentration [2, 6]: 14 µM | minimal effective concentration [2, 7]: 13.8 µM | minimal effective concentration [2, 8]: 8.43 µM | minimal effective concentration [2, 9]: 14.6 µM | minimal effective concentration [2, 10]: 10.7 µM
